Measurements taken from patent publication US9005963B2, “Amino acid sequences directed against cellular receptors for viruses and bacteria” (Ablynx N.V., priority 2008, dated 2015).
In brackets after ≈: the same amount, converted by molar mass. Marks after values point to notes of the source that are not given here.

What was measured:
[1] = target: T1, CXCR4 (Homo sapiens, UniProt P61073); experiment: Competition binding with [125I]-238D4 on membranes from HEK293T cells transiently expressing CXCR4; design: expressed in transfected cells; host or cells: HEK293T, transient (pcDNA3.1-CXCR4); settings: for displacement of [125I]-238D4 (in words): 238C5 only at high concentrations (≧100 nM); for Displacem. (%) of [125I]-238D4: maximal displacement, a: no significant displacement at 0.5 μM, b: displacement at 0.5 μM
T1 sequence (P61073 whole entry): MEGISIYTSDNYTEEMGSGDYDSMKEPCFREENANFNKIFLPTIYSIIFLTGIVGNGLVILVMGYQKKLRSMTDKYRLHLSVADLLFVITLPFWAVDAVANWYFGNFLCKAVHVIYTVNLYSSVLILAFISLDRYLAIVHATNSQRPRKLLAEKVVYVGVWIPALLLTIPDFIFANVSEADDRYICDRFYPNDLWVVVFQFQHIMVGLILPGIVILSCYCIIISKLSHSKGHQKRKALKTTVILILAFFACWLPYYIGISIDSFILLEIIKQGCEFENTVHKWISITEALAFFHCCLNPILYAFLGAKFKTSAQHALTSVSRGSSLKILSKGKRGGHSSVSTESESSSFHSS
Method: (§1) Membranes from HEK293T cells transiently expressing CXCR3 or CXCR4 were prepared 48 h after transfection as follows. Cells were washed and scraped from the cell culture dishes with ice-cold PBS containing 1 mm EDTA. The scraped cells were pelleted at 1500×g for 10 min at 4° C. The pellet was washed and then resuspended in ice-cold membrane buffer (15 mM Tris, pH 7.5, 1 mM EGTA, 0.3 mM EDTA, and 2 mM MgCl2). The cell suspension was homogenized by 10 strokes at 1200 rpm using a Teflon-glass homogenizer and rotor and further subjected to three freeze-thaw cycles using liquid nitrogen. Membranes were separated by centrifugation at 40,000 g for 25 min at 4° C. The membrane pellet was washed and resuspended in ice-cold Tris-sucrose buffer (20 mM Tris, pH 7.4, and 250 mM sucrose) and frozen in liquid nitrogen. The total protein was determined using a Bradford assay (Bio-Rad).
(§2) Membranes were then harvested over polyethylenimine (0.5%)-treated Whatman GF/C filter plates and washed three times with ice cold binding buffer containing 500 mM NaCl. Plates were counted by liquid scintillation.

[2] = target: T1, CXCR4; experiment: Competition binding with [125I]-238D2 on membranes from HEK293T cells transiently expressing CXCR4; design: expressed in transfected cells; host or cells: HEK293T, transient (pcDNA3.1-CXCR4); settings: for displacement of [125I]-238D2 (in words): 238C5 only at high concentrations (≧100 nM); for Displacem. (%) of [125I]-238D2: maximal displacement, a: no significant displacement at 0.5 μM, b: displacement at 0.5 μM
Method: as §1, §2

[3] = system: X4 HIV-1 NL4.3; experiment: HIV-1 infection assay MT-4/NL4.3 (cytopathic effect, MTS); type: cell-based; settings: Human immunodeficiency virus 1; MT-4/NL4.3 exp. 1
[4] = target: T1, CXCR4; experiment: Competition binding with [125I]-CXCL12 on membranes from HEK293T cells transiently expressing CXCR4; design: expressed in transfected cells; host or cells: HEK293T, transient (pcDNA3.1-CXCR4); displacement of specifically bound [125I]-CXCL12 (in words): dose or concentration left out as unconfirmed; settings: for Displacem. (%) of [125I]-CXCL12: maximal displacement, a: no significant displacement at 0.5 μM, b/c(B-6): maximum not reached, displacement at 0.5 μM; for pKi ([125I]-CXCL12): HEK293T-CXCR4 membranes; for Rel. potency, relative to monovalent 238D2: [125I]-CXCL12 displacement affinity, fold
Method: as §1
Membranes were then harvested over polyethylenimine (0.5%)-treated Whatman GF/C filter plates and washed three times with ice cold binding buffer containing 500 mM NaCl. Plates were counted by liquid scintillation. […]

[5] = target: T1, CXCR4; settings: 3 μM; control experiment; membranes from HEK293T cells transiently expressing CXCR4
[6] = system: HIV-1 UG270 (X4, Clade D); experiment: HIV-1 infection assay PBMC/primary isolate UG270 (p24 Ag ELISA); type: cell-based; settings: Human immunodeficiency virus 1, PBMC
Method: (§3) The anti-HIV-1 potencies of NANOBODIES on the X4 HIV-1 clone NL4.3 or primary virus strains UG270 (X4, Clade D), CI#17 (X4, clade B), the R5 HIV-1 strain BaL or the R5/X4 HIV-1 HE strain in MT-4, U87.CD4.CXCR4, U87.CD4.CCR5 and/or phytohemagglutin-stimulated PBMCs from different donors were determined by measuring the cytopathic effect of HIV-1 (in MT-4 and U87 cell lines) microscopically and by tetrazolium-based colorimetric evaluation or by quantification of the viral p24 antigen production in the culture supernatant (PBMCs) as described in detail. Primary virus strains were grown 1 or 2 times in PBMC only.
(§4) Peripheral blood mononuclear cells (PBMCs) from healthy donors were isolated by density centrifugation (Lymphoprep; Nycomed Pharma, AS Diagnostics, Oslo, Norway) and stimulated with phytohemagglutin for 3 days. The activated cells were washed with PBS and viral infections were performed as described previously (Schols D, et al. (1997) Inhibition of T-tropic HIV strains by selective antagonization of the chemokine receptor CXCR4. J Exp Med 186:1383-1388). At 8-10 days after the start of the infection, viral p24 Ag was detected in the culture supernatant by an enzyme-linked immunosorbent assay (Perkin Elmer, Brussels, Belgium).

[7] = system: X4 HIV-1 NL4.3; experiment: HIV-1 infection assay PBMC/NL4.3 (p24 Ag ELISA); type: cell-based; settings: Human immunodeficiency virus 1, PBMC
Method: (§5) The CXCR4-using (X4) HIV-1 molecular clone NL4.3 was obtained from the National Institutes of Health NIAID AIDS Reagent program (Bethesda, Md.), the CCR5-using (R5) HIV-1 strain BaL was obtained from the Medical Research Council AIDS reagent project (Herts, UK). […] The MT-4 cells were seeded out in 96-well plate and the U87 cells in 24-well plates. The test compounds were added at different concentrations together with HIV-1 and the plates were maintained at 37° C. in 10% CO2. Cytopathic effect induced by the virus was monitored by daily microscopic evaluation of the virus-infected cell cultures. […] The absorbance was then measured spectrophotometrically at 490 nm with a 96-well plate reader (Molecular Devices, Sunnyvale, Calif.) and compared with four cell control replicates (cells without virus and drugs) and four virus control wells (virus-infected cells without drugs).
as §4, with “with phytohemagglutin (PHA) (Sigma Chemical Co., Bornem Belgium) for 3” for “with phytohemagglutin for 3”, “activated cells (PHA-stimulated blasts) were washed” for “activated cells were washed”, “(Schols D, Struyf S, Van Damme J, Este J A, Henson G, De Clercq E. Inhibition of” for “(Schols D, et al. (1997) Inhibition of”, “Exp Med 1997; 186:1383-1388). At” for “Exp Med 186:1383-1388). At”
as §3
Peripheral blood mononuclear cells (PBMCs) from healthy donors were isolated by density centrifugation (Lymphoprep; Nycomed Pharma, AS Diagnostics, Oslo, Norway) and stimulated with phytohemagglutin for 3 days. […] At 8-10 days after the start of the infection, viral p24 Ag was detected in the culture supernatant by an enzyme-linked immunosorbent assay (Perkin Elmer, Brussels, Belgium).

[8] = system: HIV-1 CI#17 (X4, clade B); experiment: HIV-1 infection assay PBMC/primary isolate CI#17 (p24 Ag ELISA); type: cell-based; settings: Human immunodeficiency virus 1, PBMC
Method: as §3, §4

[9] = system: R5 HIV-1 BaL; experiment: HIV-1 infection assay PBMC/BaL (p24 Ag ELISA); type: cell-based
Method: as §5
as §4, with “with phytohemagglutin (PHA) (Sigma Chemical Co., Bornem Belgium) for 3” for “with phytohemagglutin for 3”, “activated cells (PHA-stimulated blasts) were washed” for “activated cells were washed”, “(Schols D, Struyf S, Van Damme J, Este J A, Henson G, De Clercq E. Inhibition of” for “(Schols D, et al. (1997) Inhibition of”, “Exp Med 1997; 186:1383-1388). At” for “Exp Med 186:1383-1388). At”
as §3, §4

[10] = system: R5 HIV-1 BaL; experiment: HIV-1 infection assay U87.CD4.CCR5/BaL (MTS); type: cell-based; settings: read-out: Anti-HIV-1 activity (IC50)
[11] = target: T1, CXCR4; experiment: Binding of 125I-labeled Nanobodies to membranes from HEK293T cells expressing CXCR4 compared to CXCR3; design: expressed in transfected cells; host or cells: HEK293T, transient (pcDNA3.1-CXCR4)
Method: as §1
Periplasmas (1:10) or ligands were pre-incubated with membranes in binding buffer (50 mM HEPES (pH 7.4), 1 mM CaCl2, 5 mM MgCl2, 100 mM NaCl, 0.5% bovine serum albumin) supplemented with 0.5% BSA for 1 h at 22° C. before the addition of [^125I]-CXCL12 (40 pM) or [^125I]-238D2 (3 nM) or [^125I]-238D4 (3 nM) for additional 2 h at 22° C. […] Plates were counted by liquid scintillation.

c1cc(CN2CCCNCCNCCCNCC2)ccc1CN1CCCNCCNCCCNCC1 [AMD3100]
displacement of [125I]-238D4 (in words) [1]: displaced | Displacem. (%) of [125I]-238D4 [1]: 99 ± 4% | displacement of [125I]-238D2 (in words) [2]: displaced | Displacem. (%) of [125I]-238D2 [2]: 102 ± 1% | IC50 [3]: 0.0064 µg/mL (≈ 0.0127 µM) | IC90 [3]: > 0.04 µg/mL | Displacem. (%) of [125I]-CXCL12 [4]: 94 ± 2% | displacement of [125I]-CXCL12 [5]: full | IC50 ([6]; PBMC + UG270 donor 1): 0.0036 µg/mL | IC90 ([6]; PBMC + UG270 donor 1): 0.0154 µg/mL | IC50 ([6]; PBMC + UG270 donor 2): 0.0179 µg/mL | IC90 ([6]; PBMC + UG270 donor 2): 0.0341 µg/mL | IC50 ([7]; PBMC + NL4.3 donor 1): 0.0011 µg/mL | IC90 ([7]; PBMC + NL4.3 donor 1): 0.0099 µg/mL | IC50 ([7]; PBMC + NL4.3 donor 2): > 0.04 µg/mL | IC90 ([7]; PBMC + NL4.3 donor 2): > 0.04 µg/mL | IC50 ([8]; PBMC + CI#17 donor 1): 0.0121 µg/mL | IC90 ([8]; PBMC + CI#17 donor 1): > 0.04 µg/mL | IC50 ([8]; PBMC + CI#17 donor 2): 0.0149 µg/mL | IC90 ([8]; PBMC + CI#17 donor 2): 0.0379 µg/mL

maraviroc
IC50 ([9]; PBMC + BaL donor 1): 0.0015 µg/mL | IC90 ([9]; PBMC + BaL donor 1): 0.0273 µg/mL | IC50 ([9]; PBMC + BaL donor 2): 0.0008 µg/mL | IC90 ([9]; PBMC + BaL donor 2): 0.0131 µg/mL | IC50 ([9]; read-out: Anti-HIV-1 activity (IC50), PBMC/BaL): 3.13 nM | IC50 [10]: 0.72 nM

B1: 238D2-20GS-238C5: bivalent Nanobody, SEQ ID NO: 265 (protein)
chain: EVQLVESGGGLVQTGGSLRLSCAASGFTFSSYAMSWVRQAPGKGLEWVSGIKSSGDSTRYAGSVKGRFTISRDNAKNMLYLQMYSLKPEDTAVYYCAKSRVSRTGLYTYDNRGQGTQVTVSSGGGGSGGGGSGGGGSGGGGSEVQLMESGGGLVQAGGSLRLACAASGFTFEDYAIGWFRKAPGKEREGVSCISGSDGSTTYADSVKGRFTISTDNAKNTVYLEMNSLKPEDTAVYYCAQQYGVGGRVVCPGPYEYDVWGQGTQVTVSS
modifications: Nanobodies
pKi ([125I]-CXCL12) [4]: 7.35 ± 0.07 | Rel. potency, relative to monovalent 238D2 [4]: 0.18^a | Displacem. (%) of [125I]-CXCL12 [4]: 110 ± 2%

B2: [^125I]-238D2: 125I-labeled NANOBODY 238D2 for competition binding studies (protein)
VHH: EVQLVESGGGLVQTGGSLRLSCAASGFTFSSYAMSWVRQAPGKGLEWVSGIKSSGDSTRYAGSVKGRFTISRDNAKNMLYLQMYSLKPEDTAVYYCAKSRVSRTGLYTYDNRGQGTQVTVSS
binding to CXCR4 membranes compared to CXCR3 membranes [11]: selectively bound

B3: [^125I]-238D4: 125I-labeled NANOBODY 238D4 for competition binding studies (protein)
VHH: EVQLMESGGGLVQAGGSLRLSCAASGRTFNNYAMGWFRRAPGKEREFVAAITRSGVRSGVSAIYGDSVKDRFTISRDNAKNTLYLQMNSLKPEDTAVYTCAASAIGSGALRRFEYDYSGQGTQVTVSS
binding to CXCR4 membranes compared to CXCR3 membranes [11]: selectively bound

B4: 237D2: selected Nanobody, SEQ ID NO: 241 (protein)
VHH: EVQLVESGGGLVQPGGSLRLSCAASGFTFDDYAMSWVRQAPGKGLEWVSAISWNGGSTDYADSVKGRFTISRDNAKNTLYLQMNSLKSEDTAEYYCARDQGPFYSGTYYYTRQYGYRGQGTQVTVSS
modifications: Nanobodies
displacement of [125I]-238D4 (in words) [1]: unable to inhibit | pKi ([125I]-238D4) ([1]; HEK293T-CXCR4 membranes): <6.3 | Displacem. (%) of [125I]-238D4 [1]: 0^a % | displacement of [125I]-238D2 (in words) [2]: unable to inhibit | pKi ([125I]-238D2) ([2]; HEK293T-CXCR4 membranes): <6.3 | Displacem. (%) of [125I]-238D2 [2]: 0^a % | pKi ([125I]-CXCL12) [4]: <6.3 | Displacem. (%) of [125I]-CXCL12 [4]: 0^a % | displacement of specifically bound [125I]-CXCL12 (in words) ([4]; purified Nanobodies): unable to displace

B5: 238D2-20GS-238B10: bivalent Nanobody, SEQ ID NO: 266 (protein)
chain: EVQLVESGGGLVQTGGSLRLSCAASGFTFSSYAMSWVRQAPGKGLEWVSGIKSSGDSTRYAGSVKGRFTISRDNAKNMLYLQMYSLKPEDTAVYYCAKSRVSRTGLYTYDNRGQGTQVTVSSGGGGSGGGGSGGGGSGGGGSEVQLVESGGGFVQAGGSLRLSCETSGRPLLGYTIAWFRQVPGKEREFVAYHRWSDGANLYADSVKGRFTISGHNAKNTVSLQMNSLKPEDTAVYYCAAARMTTSNDKEYLYWGQGTQVTVSS
modifications: Nanobodies
pKi ([125I]-CXCL12) [4]: <7.00 | Rel. potency, relative to monovalent 238D2 [4]: <0.1^a | Displacem. (%) of [125I]-CXCL12 [4]: 43 ± 11^c %
